Patent US8309557B2, “Pyrimidin-4-ylpropanedinitrile derivatives, processes for their preparation and their use as herbicides and plant growth regulators” (Bayer Intellectual Property GmbH, priority 2009, dated 2012)

Assays:
Format in all cases: in vivo
Amaranthus retroflexus [1] = assay: Herbicidal effect pre-emergence, AMARE
Outline: (§1)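 Pots with covered seeds receive 320 g/ha of WP- or EC-formulated compound sprayed onto the earth at 600 to 800 l/ha water plus 0.2% wetting agent; plants grow under good greenhouse conditions, and percent herbicidal effect is estimated by eye at 3 weeks (0% = as control, 100% = died off).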

Echinochloa crus-galli [2] = assay: Herbicidal effect post-emergence, ECHCG
Outline: (§2)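 Sow in sandy loam; grow in greenhouse 2–3 wk to single-leaf stage. Spray aqueous WP or EC preparation on green parts, spray volume 600–800 l/ha, 0.2 wt% wetter added. Keep ca. 3 wk under optimum conditions, then score % effect visually versus untreated controls.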

[3] = tested on: Polygonum (Fallopia) convolvulus; assay: Herbicidal effect post-emergence, POLCO
Outline: as §2

Abutilon theophrasti [4] = assay: Herbicidal effect pre-emergence, ABUTH
From the text: (§3) Seeds of mono- and dicotyledonous weed plants and crop plants are planted in wood-fiber pots in sandy loam and covered with earth. The compounds according to the invention, formulated in the form of wettable powders (WP) or as emulsion concentrates (EC), are then applied to the surface of the covering earth as aqueous suspension or emulsion at an application rate corresponding to 320 g/hectare at an application rate of 600 to 800 l of water/ha (converted) with the addition of 0.2% wetting agent.
(§4) Following treatment, the pots are placed in a greenhouse and kept under good growth conditions for the test plants. The visual grading of the damage to the test plants is carried out after a test time of 3 weeks in comparison to untreated controls (herbicidal effect in percent (%): 100% effect=plants have died off, 0% effect=as control plants).

Setaria viridis [5] = assay: Herbicidal effect pre-emergence, SETVI
From the text: as §3, §4

Matricaria inodora = assay: Herbicidal effect post-emergence, MATIN
Outline: as §2

Viola tricolor [6] = assay: Herbicidal effect post-emergence, VIOTR
Outline: as §2

[7] = tested on: Tripleurospermum inodorum; assay: Herbicidal effect pre-emergence, MATIN; conditions: 320 g/hectare, visual grading after 3 weeks vs untreated controls
From the text: as §3, §4

Viola tricolor [8] = assay: Herbicidal effect pre-emergence, VIOTR; conditions: 320 g/hectare, visual grading after 3 weeks vs untreated controls
Outline: as §1

Veronica persica [9] = assay: Herbicidal effect pre-emergence, VERPE; conditions: 320 g/hectare, visual grading after 3 weeks vs untreated controls
Outline: as §1

Setaria viridis [10] = assay: Herbicidal effect post-emergence, SETVI
Outline: as §2

Alopecurus myosuroides = assay: Herbicidal effect pre-emergence, ALOMY
From the text: as §3, §4

Veronica persica [11] = assay: Herbicidal effect post-emergence, VERPE
Outline: as §2

Ipomoea purpurea [12] = assay: Herbicidal effect post-emergence, PHBPU
Experimental: Seeds of mono- and dicotyledonous weed plants and crop plants are planted in wood-fiber pots in sandy loam, covered with earth and grown in a greenhouse under good growth conditions. 2 to 3 weeks after sowing, the test plants are treated in the single-leaf stage. The compounds according to the invention, formulated in the form of wettable powders (WP) or as emulsion concentrates (EC), are then sprayed onto the green plant parts as aqueous suspension or emulsion using an application rate of 600 to 800 l of water/ha (converted) with the addition of 0.2% by weight of wetting agent. After the test plants had been in the greenhouse for ca. 3 weeks under optimum growth conditions, the effect of the preparations is scored visually in comparison with untreated controls (herbicidal effect in percent (%): 100% effect=plants have died off, 0% effect=as control plants).

Ipomoea purpurea [13] = assay: Herbicidal effect pre-emergence, PHBPU; conditions: 320 g/hectare, visual grading after 3 weeks vs untreated controls
From the text: as §3, §4

Amaranthus retroflexus [14] = assay: Herbicidal effect post-emergence, AMARE
Outline: as §2

Polygonum convolvulus = assay: Herbicidal effect pre-emergence, POLCO; conditions: 320 g/hectare, visual grading after 3 weeks vs untreated controls
From the text: as §3, §4

Stellaria media [15] = assay: Herbicidal effect post-emergence, STEME
Outline: as §2

Abutilon theophrasti [16] = assay: Herbicidal effect post-emergence, ABUTH
Outline: as §2

Stellaria media [17] = assay: Herbicidal effect pre-emergence, STEME; conditions: 0.32 kg of active substance per hectare, visual grading after 3 weeks
From the text: as §3, §4

Echinochloa crus-galli [18] = assay: Herbicidal effect pre-emergence, ECHCG; conditions: 0.32 kg of active substance per hectare, visual grading after 3 weeks
From the text: as §3, §4

Avena fatua = assay: Herbicidal effect pre-emergence, Avena fatua; conditions: 0.32 kg of active substance per hectare, visual grading after 3 weeks
From the text: as §3, §4

Lolium multiflorum = assay: Herbicidal effect pre-emergence, LOLMU; conditions: 0.32 kg of active substance per hectare, visual grading after 3 weeks
From the text: as §3, §4

Sinapis alba = assay: Herbicidal effect pre-emergence, Sinapis alba; conditions: 0.32 kg of active substance per hectare, visual grading after 3 weeks
From the text: as §3, §4

[19] = 320 g/hectare, visual grading after 3 weeks vs untreated controls
[20] = 0.32 kg of active substance per hectare, visual grading after 3 weeks

In the case of `N.N#CC(C#N)c1nc(-c2ccc(Cl)cc2)nc(N)c1Cl` [Ex. No. 308, Ammonium [6-amino-5-chloro-2-(4-chlorophenyl)pyrimidin-4-yl](dicyano)methanide], the “Effect in % in respect of stated plant, AMARE” value (Amaranthus retroflexus [1]; [19]) is reported as 100%, the “Effect in % in respect of stated plant, ECHCG” value (Echinochloa crus-galli [2]) is reported as 88% and the “Effect in % in respect of stated plant, POLCO” value [3] is reported as 100%. For the same compound, the “Effect in % in respect of stated plant, ABUTH” value (Abutilon theophrasti [4]; [19]) was 80%, the “Effect in % in respect of stated plant, SETVI” value (Setaria viridis [5]; [19]) was 90% and the “Effect in % in respect of stated plant, MATIN” value (Matricaria inodora) was 93%. The “Effect in % in respect of stated plant, VIOTR” value (shortened to “Effect in % … VIOTR”) (Viola tricolor [6]) was 88%, the “Effect in % in respect of stated plant, MATIN” value [7] was 90% and the “Effect in % … VIOTR” value (Viola tricolor [8]) was 100%. For the same compound, the “Effect in % in respect of stated plant, VERPE” value (“Effect in % … VERPE” for short) (Veronica persica [9]) was 100%, the “Effect in % in respect of stated plant, SETVI” value (Setaria viridis [10]) was 87% and the “Effect in % in respect of stated plant, ALOMY” value (Alopecurus myosuroides; [19]) was 80%. For the same compound, the “Effect in % … VERPE” value (Veronica persica [11]) was 97%, the “Effect in % in respect of stated plant, PHBPU” value (Ipomoea purpurea [12]) was 90% and the “Effect in % in respect of stated plant, PHBPU” value (Ipomoea purpurea [13]) was 95%. For the same compound, the “Effect in % in respect of stated plant, AMARE” value (Amaranthus retroflexus [14]) was 100%, the “Effect in % in respect of stated plant, POLCO” value (Polygonum convolvulus) was 90% and the “Effect in % in respect of stated plant, STEME” value (Stellaria media [15]) was 92%. The “Effect in % in respect of stated plant, ABUTH” value (Abutilon theophrasti [16]) was 93%.
In the case of `N#CC(C#N)c1nc(-c2ccc([N+](=O)[O-])cc2)nc(N)c1Cl` [compound 9], the herbicidal effect (Amaranthus retroflexus [1]; [20]) is reported as “very good herbicidal effect”, the herbicidal effect (Stellaria media [17]) is reported as “very good herbicidal effect” and the herbicidal effect (Abutilon theophrasti [4]; [20]) is reported as “very good herbicidal effect”. For the same compound, the herbicidal effect (Echinochloa crus-galli [18]) was “very good herbicidal effect”, the herbicidal effect (Avena fatua) was “very good herbicidal effect” and the herbicidal effect (Setaria viridis [5]; [20]) was “very good herbicidal effect”. The herbicidal effect (Lolium multiflorum) was “very good herbicidal effect”, the “Effect in % … VIOTR” value (Viola tricolor [8]) was 90% and the “Effect in % … VERPE” value (Veronica persica [9]) was 80%. For the same compound, the herbicidal effect (Sinapis alba) was “very good herbicidal effect” and the herbicidal effect (Alopecurus myosuroides; [20]) was “very good herbicidal effect”.
